Experimental data reported in patent US4327114A, “Substituted 1,8-dihydroxy-9-(10H)anthracenones” (Boehringer Ingelheim GmbH, priority 1980, dated 1982).
Entries after “also recorded” stand apart in the source; their conditions may differ.

Tests used:
[1] = system: guinea pigs; experiment: Sensitizing activity on guinea pigs; type: in vivo, guinea pig (Perbright White strain)
Procedure: The sensitizing activity was tested 2 weeks after the skin compatibility test with 1:10 to 1:50 of the originally used concentrations behind the ears.

[2] = system: rat; experiment: Acute toxicity in the rat; type: in vivo
Procedure: (§1) The acute toxicity was determined in the mouse and in the rat. Determined was the LD50, i.e. the dose after administration of which 50% of the animals died within 14 days, or it was determined how many of the 10 treated animals died within the period of observation.

[3] = Acute toxicity in the rat; type: in vivo; conditions: in vivo, ip, within 14 days
Procedure: as §1

[4] = system: skin (forearms of volunteer human test subjects); experiment: Orienting skin compatibility in humans (ointments on forearm); type: in vivo; conditions: for discoloration of the skin / skin irritation: 0.44% ointment, 16 hours, doubled to 0.88% after 3 days if no reaction
Procedure: Ointments, each containing individually 0.44% of compounds […] and K were applied to the forearms of volunteer human test subjects, covered with bandage gauze and allowed to remain on the skin for 16 hours. After 16 hours the ointments were washed off with soap solution, and the skin irritation and discoloration, if any, were evaluated visually and photographed. Then, the test ointments were again administered and allowed to remain on the skin until the next day. Again, the reactions were evaluated and a new treatment was started.

[5] = system: skin of guinea pigs; experiment: Skin compatibility test on guinea pigs; type: in vivo, guinea pig (Perbright White strain); conditions: for Sum of the reactions divided by the number of animals: score 0 no irritation to 3 very strong erythema
Procedure: Guinea pigs of the Perbright White strain, with a body weight of about 350 gm, were fed with standard guinea pig feed (Altromin 3022) and water ad lib.
During the test, the animals were kept in single cages. The test substances, which were dissolved in a well compatible solvent, were applied to the skin of the animals (diameter of the test area 3.5 cm) daily for 3 weeks, from Monday to Friday. The animals were shaved each Monday, Wednesday and Friday in the early morning, the treatment with the test substances was performed in the early afternoon. Immediately before administration of the substance, the skin reaction was tested. The evaluation was carried out visually, and erythema, edema, and mycosis of the skin were considered.
The following evaluation was made:
2: strong erythema with beginning edema
3: very strong erythema with edema or beginning necrosis.
The numerical sum of the reactions was used for the total evaluation of a group of animals.

[6] = Penetration and metabolization in the skin in vitro; type: in vitro ADME, pig; conditions: thin-layer chromatography; for penetration into the layers of the skin: same carriers
[7] = system: mouse; experiment: Acute toxicity in the mouse; type: in vivo; conditions: 2000 mg/kg
Procedure: as §1

[8] = Acute toxicity in the mouse; type: in vivo; conditions: in vivo, within 14 days
Procedure: as §1

[9] = system: skin; conditions: literature or prior use; listed as dithranol; cited from earlier work
[10] = system: psoriasis; conditions: literature or prior use; cited from earlier work
[11] = Stability under light irradiation; type: physicochemical; conditions: for decomposition under light: 30 minutes, 400 W high-pressure mercury vapor lamp, in toluene or xylene
Procedure: Compound C and dithranol (A) in solution (toluene or xylene) were exposed for 30 minutes to a 400 W high-pressure mercury vapor lamp (Type HPM 12, Phillips), where the spectrum of light emission was changed by adding heavy metal salts.

[12] = system: skin; experiment: Skin compatibility under occlusion, method of Mustakallio; type: in vivo; conditions: for concentrations producing discoloration and skin irritations: white vaseline
Procedure: In a further test, according to the method of Mustakallio, compound A was applied at concentrations of 1, 2, 4, 8, 16, 32 mmols in white vaseline and allowed to remain on the skin for 4 hours under occlusion. Compounds C and K, however, were applied at concentrations of 4, 8, 16, 32, 64, 128 mmols, also in white vaseline, and allowed to remain on the skin for 16 hours under occlusion. […] This means that the novel compounds are more compatible by a factor of at least 64.

[13] = prior use; cited from earlier work
[14] = Solubility remark; type: physicochemical
[15] = system: guinea pig; experiment: Photo-sensitization in vivo on the guinea pig; conditions: 0.01% alcoholic solution, 3 weeks, 125 W mercury high-pressure lamp 10 minutes
Procedure: Since some halogenated aromatic substances have a photo-sensitizing activity, the photo-sensitization of compound C was also tested in vivo on the guinea pig.
Guinea pigs were treated for 3 weeks on 5 week-days with a 0.01% alcoholic solution of compound C. After 30 minutes each animal was exposed for 10 minutes to a 125 W mercury high-pressure lamp (ultra violet sun lamp). The irradiation was carried out in such a way that no UV-B erythema appeared.

[16] = Natural color of the substance (UV-absorption, FIG. 1); type: physicochemical; conditions: shortwave portion of visible light, beginning at 380 nm
Description: Topically administrable substances which are colored are undesirable for cosmetic reasons and also because the lingerie may become soiled. […] This is also expressed by the optic impression of the preparations. […] This is a further advantage compared with dithranol.

[17] = molecular target: glucose-6-phosphate-dihydrogenase; experiment: Inhibition of glucose-6-phosphate-dihydrogenase after 120 minutes incubation; type: biochemical; conditions: 37° C., pH 7.6, REED and MUENCH
Procedure: The inhibiting effect upon enzymes was determined by measurement of the inhibition of glucose-6-phosphate-dihydrogenase.
The following equilibrium was observed: [drawing 5] (NADP-nicotinamide-adenine-dinucleotide-phosphate). The rate of formation of NADPH is a measure of the enzyme activity; it can be measured by means of the increase in extinction at […] per unit of time.
0.025 ml of glucose-6-phosphate-dihydrogenase were diluted to 10 ml with distilled water (Solution I). 100 mg of nicotinamide-adenine-dinucleotide-phosphate were dissolved in 13 ml of distilled water (Solution II). 47.2 mg of glucose-6-phosphate were dissolved in another 10 ml of distilled water (Solution III). Besides this, a buffer solution (Solution IV) was prepared as follows:
0.28 gm of triethanolamine hydrochloride and 1.461 gm of ethylene-diamine tetraacetic acid disodium salt were dissolved in 1 liter of distilled water, and the solution was adjusted to pH 7.6 with sodium hydroxide. The substance to be tested was dissolved in dimethyl formamide or ethanol (Solution V). Tested end-concentrations: 25, 12.5, 6.25, 3.125, 1.56 and 0.78 μg/ml.
A mixture of 0.1 ml of Solution I, 0.1 ml of Solution II, 2.67 ml of Solution IV and 0.03 ml of Solution V was kept at 37° C. for 120 minutes. After addition of 0.1 ml of Solution III and thorough mixing, the change in extinction was measured photometrically at 366 nm over 3 minutes. The inhibition values were calculated from the average values of 3 measurements (as change of extinction per minute), compared to controls to which the pure solvent was added as inhibitor solution. The ED50 was calculated according to the method of REED and MUENCH from the inhibiting values of the different concentrations. The following table contains the values thus determined: […]

Compound: O=C1c2c(O)cccc2Cc2cccc(O)c21 [Compound A, 1,8-Dihydroxy-9-(10H)anthracenone]
- sensitized animals ([1]; 0.03%, tested 2 weeks after skin compatibility test): 3 out of 12
- Number of dead animals ([2]; p.o., 2000 mg/kg): 1/10
- Number of dead animals ([2]; sc., 1000 mg/kg): 2/10
- LD50 at 336 h [3]: 5.19 mg/kg
- discoloration of the skin [4]: brownish-violet discoloration after only the second application
- skin irritation [4]: strong skin irritation with erythema
- later changes of the treated skin area ([4]; ointment test): peeled after about one week
- Sum of the reactions divided by the number of animals ([5]; 0.015%, end of 1st week): 0.66
- Sum of the reactions divided by the number of animals ([5]; 0.015%, end of 2nd week): 0.33
- Sum of the reactions divided by the number of animals ([5]; 0.015%, end of 3rd week): 0.33
- Sum of the reactions divided by the number of animals ([5]; 0.03%, end of 1st week): 1.3
- Sum of the reactions divided by the number of animals ([5]; 0.03%, end of 2nd week): 2.16
- Sum of the reactions divided by the number of animals ([5]; 0.03%, end of 3rd week): 2.25
- penetration into the layers of the skin [6]: penetrate to an approximately equal extent
- metabolization in the skin [6]: metabolized in a similar manner
- Number of dead animals ([7]; p.o.): 2/10
- LD50 at 336 h ([8]; ip): 2.42 mg/kg
- LD50 at 336 h ([8]; sc.): 2.22 mg/kg
- skin irritation and/or discoloration [9]: strong, irreversible discoloration of skin and lingerie; also recorded: strong skin-irritating activity
- antipsoriatic activity [10]: reliable activity
- decomposition under light [11]: nearly completely decomposed
- concentrations producing discoloration and skin irritations ([12]; 4 hours of occlusion): ≥ 2 mmols
- concentrations producing discoloration and skin irritations ([12]; 16 hours of occlusion): ≥ 1 mmols
- systemic side-effects [13]: lack of systemic side-effects

Compound: CC(C)(C)c1cc(Br)c(O)c2c1Cc1c(Br)cc(Br)c(O)c1C2=O
- solubility [14]: inadequate solubility

Compound: O=C1c2c(O)ccc(Cl)c2Cc2c(Cl)ccc(O)c21 [Compound C, 4,5-Dichloro-1,8-dihydroxy-9-(10H)anthracenone]
- photo-sensitizing activity [15]: No photo-sensitizing activity could be determined
- sensitization ([1]; 1:10 to 1:50 of the original concentrations, behind the ears): no sensitization
- Number of dead animals ([2]; i.p., 2000 mg/kg): 0/10
- Number of dead animals ([2]; p.o., 2000 mg/kg): 0/10
- Number of dead animals ([2]; sc., 2000 mg/kg): 0/10
- discoloration of the skin [4]: no skin irritation or discoloration of the skin
- skin irritation [4]: no skin irritation
- Sum of the reactions divided by the number of animals ([5]; 0.03%, end of 1st week): 0
- Sum of the reactions divided by the number of animals ([5]; 0.03%, end of 2nd week): 0
- Sum of the reactions divided by the number of animals ([5]; 0.03%, end of 3rd week): 0.04
- Sum of the reactions divided by the number of animals ([5]; 0.045%, end of 1st week): 0.166
- Sum of the reactions divided by the number of animals ([5]; 0.045%, end of 2nd week): 0.66
- Sum of the reactions divided by the number of animals ([5]; 0.045%, end of 3rd week): 0.41
- skin compatibility compared with compound A ([5]; Table 3): considerably more skin-compatible than compound A
- penetration into the layers of the skin [6]: penetrate to an approximately equal extent
- metabolization in the skin [6]: metabolized in a similar manner
- Number of dead animals ([7]; i.p.): 1/10
- Number of dead animals ([7]; p.o.): 0/10
- Number of dead animals ([7]; sc.): 6/10
- UV-absorption / yellow color [16]: significantly less UV-absorption
- decomposition under light [11]: no decomposition could be determined
- chlorination of toluene (radical formation) ([11]; gas-chromatographic, sensitivity 0.0001%): no chlorination of toluene could be found
- skin irritations or discolorations ([12]; 4 to 128 mmols in white vaseline, after 4 and after 16 hours of occlusion): no skin irritations or discolorations could be observed
- ED50, inhibition of incubation after 120 minutes [17]: 4.63 µg/mL
